Experimental data published in publication PMC7232201 (Microorganisms, 2020).
Where a name gives a salt, the structure may show the parent alone.

The molecules below were run against T1, ArsR (Helicobacter pylori, UniProt O24973) (assay: isothermal titration calorimetry). Conditions: read-out: ITC ^a / Kd.
T1 construct: expressed in E. coli BL21(DE3)
Type: binding

T1 sequence (O24973 whole entry): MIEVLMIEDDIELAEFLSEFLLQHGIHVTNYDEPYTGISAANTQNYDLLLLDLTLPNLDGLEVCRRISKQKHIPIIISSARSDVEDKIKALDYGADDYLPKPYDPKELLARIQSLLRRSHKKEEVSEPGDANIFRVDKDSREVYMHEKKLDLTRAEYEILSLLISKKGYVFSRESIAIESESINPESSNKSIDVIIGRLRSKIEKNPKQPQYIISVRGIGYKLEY

Row | SMILES | Kd
1 | CCCCCN(CCCCC)C(=O)C(CCC(=O)O)NC(=O)c1ccc(Cl)c(Cl)c1 (stereo not drawn) [Lorglumide sodium salt] | 0.67 µM
2 | C[C@H](CCC(=O)O)[C@H]1CC[C@H]2[C@@H]3CC[C@@H]4C[C@H](O)CC[C@]4(C)[C@H]3CC[C@]12C [Lithocholic acid] | 4.9 µM
3 | CC[N+](C)(CC)CCC[n+]1c(-c2ccccc2)c2cc(N)ccc2c2ccc(N)cc21 [Propidium iodide] | 18 µM
